Assay results taken from patent US20250136606A1, “MODULATORS OF TRPML, THEIR COMPOSITIONS AND METHODS OF USE” (Caraway Therapeutics, Inc., priority 2021, published 2025).
Read-outs that look alike come from different tables or passages of the source.

What was measured:
TRPML1 = TRPML1 (Homo sapiens, UniProt Q9GZU1); assay: Fluorescent TRPML1 assay (Fluo4-AM calcium fluorescence in doxycycline-induced HEK-293 Trex cells); type: cell-based
Procedure: (§1) HEK-293 Trex cells were stably transfected with a construct consisting of the human coding sequence for TRPML1 cloned into the […] plasmid pCDNA5 T/O. Mutations were introduced into the TRPML1 sequence to facilitate expression on the cell surface (Silvia Vergarajauregui, Rosa Puertollano, Traffic. 2006 March; 7(3): 337-353). Briefly, the cells are cultured in 150 mm round tissue culture dishes containing 20 mL of media. The day before the assay the cells are rinsed with DPBS-Ca—Mg and then treated briefly with Trypsin-EDTA. The Trypsin-EDTA is diluted with growth media, and cells are counted. 38×10^6 cells are re-plated into 150 mm round tissue culture dishes in media containing 0.5 ug/mL doxycycline to induce expression of hTRPML1.
(§2) The day of the experiment cells are lifted from the plates as above and collected by centrifugation. The cells are then suspended in dye loading buffer consisting of Ringer's solution supplemented with 0.1% Pluronic Acid and 1 micromolar Fluo4-AM dye. Cells are loaded for ˜60 minutes in the dark with occasional mixing. The cells are collected by centrifugation, the loading media aspirated, and the cells resuspended in 25 mL Ringer's solution and incubated ˜60 minutes in the dark. The cells are again collected by centrifugation, rinsed in Ringer's Solution and resuspended to […] in modified Ringer's solution containing 10 mM calcium.
(§3) Compounds are dissolved to a concentration of 10 millimolar with DMSO. Compound plates are created by dispensing compounds into 384 well black wall clear bottom plates (Greiner 781091). Positive and negative controls are included on each plate. Typically, different amounts of each compound are tested ranging from 100 nanoMoles (20 micromolar final concentration) decreasing in half-log steps to 31 picoMoles (6 nanomolar final concentration). Each concentration is typically tested in triplicate.
(§4) 50 microliters of dye-loaded cells are dispensed into each well of the compound assay plate created above. The fluorescence in each well is then determined with an excitation wavelength of 480 nm and an emission wavelength of 540 nm using either a Molecular Devices SpectraMax multimode plate reader or a Hamamatsu FDSS/uCell plate imager.
(§5) The resulting fluorescence for each well is exported as an ascii file and loaded into our LIMS for analysis. The percent activity of each compound at each concentration is determined by comparison to the positive and negative control wells included in each plate.
(§6) EC50 values were calculated using a non-linear regression of Prism. In the table, “A” indicates an EC50 of less than 100 nM, “B” indicates an EC50 range from 100 nM to 500 nM; “C” indicates an EC50 range from 500 nM to 2 μM; and “D” indicates an EC50 greater than 2 μM.

TRPML3 = target: T1, TRPML3 (Homo sapiens, UniProt Q8TDD5); assay: Fluorescent TRPML3 assay (performed as for TRPML1, substituting the TRPML3 subtype); type: cell-based
T1 construct: expressed in transfected cells
T1 sequence (Q8TDD5 1-553): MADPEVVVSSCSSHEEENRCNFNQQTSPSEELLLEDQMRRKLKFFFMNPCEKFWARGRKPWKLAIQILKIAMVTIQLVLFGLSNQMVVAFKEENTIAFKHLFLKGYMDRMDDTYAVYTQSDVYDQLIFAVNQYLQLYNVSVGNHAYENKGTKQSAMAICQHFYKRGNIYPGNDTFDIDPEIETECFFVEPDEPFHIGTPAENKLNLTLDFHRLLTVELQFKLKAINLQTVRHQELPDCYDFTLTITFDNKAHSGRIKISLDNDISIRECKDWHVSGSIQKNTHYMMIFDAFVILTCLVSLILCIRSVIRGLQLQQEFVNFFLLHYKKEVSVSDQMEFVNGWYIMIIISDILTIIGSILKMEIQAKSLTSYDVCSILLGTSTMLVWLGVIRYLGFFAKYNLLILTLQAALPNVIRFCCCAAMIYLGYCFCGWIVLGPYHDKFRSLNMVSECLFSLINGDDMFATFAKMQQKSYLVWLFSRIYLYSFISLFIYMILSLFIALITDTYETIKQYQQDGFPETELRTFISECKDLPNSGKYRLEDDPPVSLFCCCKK
Procedure: as §1, §2, §3, §4, §5
TRPML2 and TRPML3 Assays Assays for TRPML2 and TRPML3 were performed as above for TRPML1, by substituting the appropriate TRPML2 or TRPML3 subtype for the TRPML1.
as §6

TRPML1, sequence (Q9GZU1 whole entry L15A/L16A/L577A/L578A, form open): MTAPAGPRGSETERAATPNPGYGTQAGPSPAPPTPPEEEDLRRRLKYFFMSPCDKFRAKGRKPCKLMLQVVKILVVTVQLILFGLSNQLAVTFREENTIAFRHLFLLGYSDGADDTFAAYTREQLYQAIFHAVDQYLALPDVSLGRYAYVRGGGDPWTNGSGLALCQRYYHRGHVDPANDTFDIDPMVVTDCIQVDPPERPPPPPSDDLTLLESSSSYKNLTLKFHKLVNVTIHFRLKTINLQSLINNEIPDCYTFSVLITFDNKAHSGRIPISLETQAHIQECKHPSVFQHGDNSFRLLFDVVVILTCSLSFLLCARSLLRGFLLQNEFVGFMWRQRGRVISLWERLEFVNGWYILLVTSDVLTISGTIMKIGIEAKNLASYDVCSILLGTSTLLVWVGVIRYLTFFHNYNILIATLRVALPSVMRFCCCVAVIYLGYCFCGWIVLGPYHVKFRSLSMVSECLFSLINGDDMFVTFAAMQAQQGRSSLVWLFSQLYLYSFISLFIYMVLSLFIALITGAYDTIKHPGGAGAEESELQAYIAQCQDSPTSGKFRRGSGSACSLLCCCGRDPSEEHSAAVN

Structure (SMILES) | EC50 (TRPML1; fluorescent calcium assay) | EC50 (TRPML3; fluorescent calcium assay) | EC50 (TRPML1) | EC50 (TRPML3)
C[C@@H]1CN(c2ncnc3c2c(C2CC2)cn3-c2cc(C#N)ccn2)[C@@H](C)CN1C(=O)OC(C)(C)C [Compound 394, tert-butyl (2R,5S)-4-(7-(4-cyanopyridin-2-yl)-5-cyclopropyl-7H-pyrrolo[2,3-d]pyrimidin-4-yl)-2,5-dimethylpiperazine-1-carboxylate] | < 100 nM | < 100 nM |  | 
CC(C)(C)OC(=O)N1CCN(c2ncnc3c2c(C2CC2)cn3-c2cc(C#N)ccn2)CC1(C)C [Compound 395, tert-butyl 4-(7-(4-cyanopyridin-2-yl)-5-cyclopropyl-7H-pyrrolo[2,3-d]pyrimidin-4-yl)-2,2-dimethylpiperazine-1-carboxylate] | < 100 nM | < 100 nM |  | 
CC(C)(C)OC(=O)N1CCN(c2ncnc3c2c(C2CC2)cn3-c2cc(C#N)ccn2)CC12CC2 [Compound 396, tert-butyl 7-(7-(4-cyanopyridin-2-yl)-5-cyclopropyl-7H-pyrrolo[2,3-d]pyrimidin-4-yl)-4,7-diazaspiro[2.5]octane-4-carboxylate] | 100 to 500 nM | < 100 nM |  | 
C[C@H]1CN(C(=O)OC(C)(C)C)CCN1c1ncnc2c1c(C1CC1)cn2-c1ncc(C#N)s1 [Compound 397, tert-butyl (S)-4-(7-(5-cyanothiazol-2-yl)-5-cyclopropyl-7H-pyrrolo[2,3-d]pyrimidin-4-yl)-3-methylpiperazine-1-carboxylate] | > 2000 nM | 100 to 500 nM |  | 
CC(C)C(=O)N1CCN(c2nccc3c2c(-c2ccccc2F)cn3-c2cc(C#N)ccn2)[C@@H](C)C1 [Compound 450, (S)-2-(3-(2-fluorophenyl)-4-(4-isobutyryl-2-methylpiperazin-1-yl)-1H-pyrrolo[3,2-c]pyridin-1-yl)isonicotinonitrile] | < 100 nM | 100 to 500 nM |  | 
CC(C)(C)OC(=O)N1CCN(c2ncnc3c2c(-c2ccccc2F)cn3-c2nccc(C#N)n2)CC1 [Compound 459] | < 100 nM | < 100 nM |  | 
CC(C)(C)OC(=O)N1CC2(C1)CN(c1ncnc3c1c(C1CC1)cn3-c1cc(Cl)cc(Cl)c1)C2 [Compound 464, tert-butyl 6-(5-cyclopropyl-7-(3,5-dichlorophenyl)-7H-pyrrolo[2,3-d]pyrimidin-4-yl)-2,6-diazaspiro[3.3]heptane-2-carboxylate] | 500 to 2000 nM | 100 to 500 nM |  | 
C[C@@H]1CN(C(=O)OC(C)(C)C)CCN1c1ncnc2c1c(C1CCOCC1)cn2-c1cc(F)cc(F)c1 [Compound 467, tert-butyl (R)-4-(7-(3,5-difluorophenyl)-5-(tetrahydro-2H-pyran-4-yl)-7H-pyrrolo[2,3-d]pyrimidin-4-yl)-3-methylpiperazine-1-carboxylate] | > 2000 nM | 500 to 2000 nM |  | 
C[C@H]1CN(C(=O)OC(C)(C)C)CCN1c1ncnc2c1c(C1CCOCC1)cn2-c1cccc(F)c1 [Compound 470, tert-butyl (S)-4-(7-(3-fluorophenyl)-5-(tetrahydro-2H-pyran-4-yl)-7H-pyrrolo[2,3-d]pyrimidin-4-yl)-3-methylpiperazine-1-carboxylate] | 500 to 2000 nM | 500 to 2000 nM |  | 
C[C@@H]1CN(c2ncnc3c2c(OC2CCC2)cn3-c2cc(C#N)ccn2)[C@@H](C)CN1C(=O)OC(C)(C)C [Compound 508, tert-butyl (2R,5S)-4-(7-(4-cyanopyridin-2-yl)-5-cyclobutoxy-7H-pyrrolo[2,3-d]pyrimidin-4-yl)-2,5-dimethylpiperazine-1-carboxylate] |  |  | < 100 nM | < 100 nM
C[C@@H]1CN(c2ncnc3c2c(C(F)(F)F)cn3-c2cc(C#N)ccn2)[C@@H](C)CN1C(=O)OC1CC1 [Compound 515, cyclopropyl (2R,5S)-4-(7-(4-cyanopyridin-2-yl)-5-(trifluoromethyl)-7H-pyrrolo[2,3-d]pyrimidin-4-yl)-2,5-dimethylpiperazine-1-carboxylate] |  |  | < 100 nM | < 100 nM
